# Literature values in PMC8513935.
# Columns and labels:
# [1] = derived by the authors as gas->solvent minus gas->water (a hypothetical dry solvent; the ESI), not a two-phase measurement
# [2] = experimental, compiled by the authors from the literature (the ESI cites the sources)
# [3] = log P octanol/water from commercial databases, averaged (the ESI); conditions: Octanol (wet), 25 C
compound,measurement,setting,value
CCC(C)=O,"log K of transfer, water to solvent","[1]; 1,2-Dichloroethane, 25 C",0.92 log10 K
same,"log K of transfer, water to solvent","[1]; 2-Methylpropan-1-ol, 25 C",0.27 log10 K
same,"log K of transfer, water to solvent","[1]; 2-Methylpropan-2-ol, 25 C",0.39 log10 K
same,"log K of transfer, water to solvent","[1]; 3-Methylbutan-1-ol, 25 C",0.29 log10 K
same,"log K of transfer, water to solvent","[1]; Acetone, 25 C",0.7 log10 K
same,"log K of transfer, water to solvent","[1]; Acetonitrile, 25 C",0.76 log10 K
same,"log K of transfer, water to solvent","[1]; Benzene, 25 C",0.55 log10 K
same,"log K of transfer, water to solvent","[1]; Butan-1-ol, 25 C",0.3 log10 K
same,"log K of transfer, water to solvent","[1]; Butan-2-ol, 25 C",0.33 log10 K
same,"log K of transfer, water to solvent","[1]; Butanone, 25 C",0.64 log10 K
same,"log K of transfer, water to solvent","[1]; Butyronitrile, 25 C",0.66 log10 K
same,"log K of transfer, water to solvent","[1]; CCl4, 25 C",0.27 log10 K
same,"log K of transfer, water to solvent","[1]; Chlorobenzene, 25 C",0.57 log10 K
same,"log K of transfer, water to solvent","[1]; Chloroform, 25 C",1.15 log10 K
same,"log K of transfer, water to solvent","[1]; Cyclohexane, 25 C",-0.246 log10 K
same,"log K of transfer, water to solvent","[1]; Cyclohexanone, 25 C",0.574 log10 K
same,"log K of transfer, water to solvent","[1]; Di-n-butyl ether, 25 C",0.00999 log10 K
same,"log K of transfer, water to solvent","[1]; Dichloromethane, 25 C",1.14 log10 K
same,"log K of transfer, water to solvent","[1]; Diethyl Ether, 25 C",0.31 log10 K
same,"log K of transfer, water to solvent","[1]; Ethanol, 25 C",0.44 log10 K
same,"log K of transfer, water to solvent","[1]; Hexadecane, 25 C",-0.433 log10 K
same,"log K of transfer, water to solvent","[1]; Hexan-1-ol, 25 C",0.122 log10 K
same,"log K of transfer, water to solvent","[1]; Hexane, 25 C",-0.23 log10 K
same,"log K of transfer, water to solvent","[1]; Methanol, 25 C",0.62 log10 K
same,"log K of transfer, water to solvent","[1]; Octan-1-ol(dry), 25 C",0.05 log10 K
same,"log K of transfer, water to solvent","[1]; Pentan-1-ol, 25 C",0.13 log10 K
same,"log K of transfer, water to solvent","[1]; Perfluoroalkane, 25 C",-0.957 log10 K
same,"log K of transfer, water to solvent","[1]; Propan-1-ol, 25 C",0.35 log10 K
same,"log K of transfer, water to solvent","[1]; Propan-2-ol, 25 C",0.27 log10 K
same,"log K of transfer, water to solvent","[1]; Tetrahydrofuran, 25 C",0.61 log10 K
same,"log K of transfer, water to solvent","[1]; Toluene, 25 C",0.41 log10 K
same,"log K of transfer, gas to solvent","[2]; 1,2-Dichloroethane, 25 C",3.64 log10 K
same,"log K of transfer, gas to solvent","[2]; 2-Methylpropan-1-ol, 25 C",2.99 log10 K
same,"log K of transfer, gas to solvent","[2]; 2-Methylpropan-2-ol, 25 C",3.11 log10 K
same,"log K of transfer, gas to solvent","[2]; 3-Methylbutan-1-ol, 25 C",3.01 log10 K
same,"log K of transfer, gas to solvent","[2]; Acetonitrile, 25 C",3.48 log10 K
same,"log K of transfer, gas to solvent","[2]; Benzene, 25 C",3.27 log10 K
same,"log K of transfer, gas to solvent","[2]; Butan-1-ol, 25 C",3.02 log10 K
same,"log K of transfer, gas to solvent","[2]; Butan-2-ol, 25 C",3.05 log10 K
same,"log K of transfer, gas to solvent","[2]; Butanone, 25 C",3.36 log10 K
same,"log K of transfer, gas to solvent","[2]; Butyronitrile, 25 C",3.38 log10 K
same,"log K of transfer, gas to solvent","[2]; CCl4, 25 C",2.99 log10 K
same,"log K of transfer, gas to solvent","[2]; Chlorobenzene, 25 C",3.29 log10 K
same,"log K of transfer, gas to solvent","[2]; Chloroform, 25 C",3.87 log10 K
same,"log K of transfer, gas to solvent","[2]; Cyclohexane, 25 C",2.47 log10 K
same,"log K of transfer, gas to solvent","[2]; Cyclohexanone, 25 C",3.29 log10 K
same,"log K of transfer, gas to solvent","[2]; Di-n-butyl ether, 25 C",2.73 log10 K
same,"log K of transfer, gas to solvent","[2]; Dichloromethane, 25 C",3.86 log10 K
same,"log K of transfer, gas to solvent","[2]; Diethyl Ether, 25 C",3.03 log10 K
same,"log K of transfer, gas to solvent","[2]; Ethanol, 25 C",3.16 log10 K
same,"log K of transfer, gas to solvent","[2]; Hexadecane, 25 C",2.29 log10 K
same,"log K of transfer, gas to solvent","[2]; Hexan-1-ol, 25 C",2.84 log10 K
same,"log K of transfer, gas to solvent","[2]; Hexane, 25 C",2.49 log10 K
same,"log K of transfer, gas to solvent","[2]; Methanol, 25 C",3.34 log10 K
same,"log K of transfer, gas to solvent","[2]; Octan-1-ol, 25 C",2.77 log10 K
same,"log K of transfer, gas to solvent","[2]; Pentan-1-ol, 25 C",2.85 log10 K
same,"log K of transfer, gas to solvent","[2]; Perfluoroalkane, 25 C",1.76 log10 K
same,"log K of transfer, gas to solvent","[2]; Propan-1-ol, 25 C",3.07 log10 K
same,"log K of transfer, gas to solvent","[2]; Propan-2-ol, 25 C",2.99 log10 K
same,"log K of transfer, gas to solvent","[2]; Propanone, 25 C",3.42 log10 K
same,"log K of transfer, gas to solvent","[2]; Tetrahydrofuran, 25 C",3.33 log10 K
same,"log K of transfer, gas to solvent","[2]; Toluene, 25 C",3.13 log10 K
same,"log K of transfer, gas to solvent","[2]; Water, 25 C",2.72 log10 K
same,"log K of transfer, water to solvent",[3],0.29 log10 K
CCCCCCCCCC,"log K of transfer, water to solvent","[1]; Butanone, 25 C",6.74 log10 K
same,"log K of transfer, water to solvent","[1]; Ethanol, 25 C",6.24 log10 K
same,"log K of transfer, water to solvent","[1]; Hexadecane, 25 C",7 log10 K
same,"log K of transfer, water to solvent","[1]; Hexane, 25 C",7.34 log10 K
same,"log K of transfer, gas to solvent","[2]; Butanone, 25 C",4.42 log10 K
same,"log K of transfer, gas to solvent","[2]; Ethanol, 25 C",3.92 log10 K
same,"log K of transfer, gas to solvent","[2]; Hexadecane, 25 C",4.68 log10 K
same,"log K of transfer, gas to solvent","[2]; Hexane, 25 C",5.02 log10 K
same,"log K of transfer, gas to solvent","[2]; Water, 25 C",-2.32 log10 K
same,"log K of transfer, water to solvent",[3],5.88 log10 K
c1ccc2c(c1)Cc1ccccc1-2,"log K of transfer, water to solvent","[1]; 2-Methylpropan-1-ol, 25 C",4.3 log10 K
same,"log K of transfer, water to solvent","[1]; 2-Methylpropan-2-ol, 25 C",4.03 log10 K
same,"log K of transfer, water to solvent","[1]; 3-Methylbutan-1-ol, 25 C",4.11 log10 K
same,"log K of transfer, water to solvent","[1]; Acetonitrile, 25 C",4.67 log10 K
same,"log K of transfer, water to solvent","[1]; Butan-1-ol, 25 C",4.26 log10 K
same,"log K of transfer, water to solvent","[1]; Butan-2-ol, 25 C",4.11 log10 K
same,"log K of transfer, water to solvent","[1]; Decan-1-ol, 25 C",4.39 log10 K
same,"log K of transfer, water to solvent","[1]; Ethanol, 25 C",4.09 log10 K
same,"log K of transfer, water to solvent","[1]; Heptan-1-ol, 25 C",4.39 log10 K
same,"log K of transfer, water to solvent","[1]; Hexadecane, 25 C",4.47 log10 K
same,"log K of transfer, water to solvent","[1]; Hexan-1-ol, 25 C",4.34 log10 K
same,"log K of transfer, water to solvent","[1]; Hexane, 25 C",4.36 log10 K
same,"log K of transfer, water to solvent","[1]; Methanol, 25 C",4.03 log10 K
same,"log K of transfer, water to solvent","[1]; Octan-1-ol(dry), 25 C",4.38 log10 K
same,"log K of transfer, water to solvent","[1]; Pentan-1-ol, 25 C",4.32 log10 K
same,"log K of transfer, water to solvent","[1]; Propan-1-ol, 25 C",4.21 log10 K
same,"log K of transfer, water to solvent","[1]; Propan-2-ol, 25 C",4.09 log10 K
same,"log K of transfer, gas to solvent","[2]; 2-Methylpropan-1-ol, 25 C",6.75 log10 K
same,"log K of transfer, gas to solvent","[2]; 2-Methylpropan-2-ol, 25 C",6.48 log10 K
same,"log K of transfer, gas to solvent","[2]; 3-Methylbutan-1-ol, 25 C",6.56 log10 K
same,"log K of transfer, gas to solvent","[2]; Acetonitrile, 25 C",7.12 log10 K
same,"log K of transfer, gas to solvent","[2]; Butan-1-ol, 25 C",6.71 log10 K
same,"log K of transfer, gas to solvent","[2]; Butan-2-ol, 25 C",6.56 log10 K
same,"log K of transfer, gas to solvent","[2]; Decan-1-ol, 25 C",6.84 log10 K
same,"log K of transfer, gas to solvent","[2]; Ethanol, 25 C",6.54 log10 K
same,"log K of transfer, gas to solvent","[2]; Heptan-1-ol, 25 C",6.84 log10 K
same,"log K of transfer, gas to solvent","[2]; Hexadecane, 25 C",6.92 log10 K
same,"log K of transfer, gas to solvent","[2]; Hexan-1-ol, 25 C",6.79 log10 K
same,"log K of transfer, gas to solvent","[2]; Hexane, 25 C",6.81 log10 K
same,"log K of transfer, gas to solvent","[2]; Methanol, 25 C",6.48 log10 K
same,"log K of transfer, gas to solvent","[2]; Octan-1-ol, 25 C",6.83 log10 K
same,"log K of transfer, gas to solvent","[2]; Pentan-1-ol, 25 C",6.77 log10 K
same,"log K of transfer, gas to solvent","[2]; Propan-1-ol, 25 C",6.66 log10 K
same,"log K of transfer, gas to solvent","[2]; Propan-2-ol, 25 C",6.54 log10 K
same,"log K of transfer, gas to solvent","[2]; Water, 25 C",2.45 log10 K
same,"log K of transfer, water to solvent",[3],4.18 log10 K
C,"log K of transfer, water to solvent","[1]; Acetone, 25 C",1.24 log10 K
same,"log K of transfer, water to solvent","[1]; Butan-1-ol, 25 C",1.15 log10 K
same,"log K of transfer, water to solvent","[1]; CCl4, 25 C",1.32 log10 K
same,"log K of transfer, water to solvent","[1]; Chlorobenzene, 25 C",1.13 log10 K
same,"log K of transfer, water to solvent","[1]; Decan-1-ol, 25 C",1.05 log10 K
same,"log K of transfer, water to solvent","[1]; Diethyl Ether, 25 C",1.48 log10 K
same,"log K of transfer, water to solvent","[1]; Ethanol, 25 C",1.17 log10 K
same,"log K of transfer, water to solvent","[1]; Heptan-1-ol, 25 C",1.11 log10 K
same,"log K of transfer, water to solvent","[1]; Hexadecane, 25 C",1.14 log10 K
same,"log K of transfer, water to solvent","[1]; Hexan-1-ol, 25 C",1.12 log10 K
same,"log K of transfer, water to solvent","[1]; Hexane, 25 C",1.44 log10 K
same,"log K of transfer, water to solvent","[1]; Methanol, 25 C",1.19 log10 K
same,"log K of transfer, water to solvent","[1]; Octan-1-ol(dry), 25 C",1.08 log10 K
same,"log K of transfer, water to solvent","[1]; Pentan-1-ol, 25 C",1.13 log10 K
same,"log K of transfer, water to solvent","[1]; Perfluoroalkane, 25 C",1.42 log10 K
same,"log K of transfer, water to solvent","[1]; Propan-1-ol, 25 C",1.17 log10 K
same,"log K of transfer, water to solvent","[1]; Propan-2-ol, 25 C",1.13 log10 K
same,"log K of transfer, water to solvent","[1]; Tetrahydrofuran, 25 C",1.28 log10 K
same,"log K of transfer, water to solvent",[3],1.09 log10 K
